Results: patent US11312758B2, “Peptides with vasodilatory and/or diuretic functions” (National University of Singapore, priority 2016, dated 2022)
“And” between values parts separate entries of the source, which are not always exact repeats. Identical values can stand only once. Positions of bridges follow the written chain, without caps; N, C: chain ends. Residues, ends and D or L forms follow the SMILES beside them.

How the values were obtained:
[1] = test system: anesthetized male SD rats; experiment: In-vivo activity assay: peptide infusion in anesthetized rats (MAP, HR, PP, urine flow); set-up: species or system rat
Protocol: Male Sprague-Dawley (SD) rats (220-280 g) were obtained from Invivos, Singapore. Animals were acclimatized in the Animal Holding unit, NUS for 3 days before the experiment. The experiments were conducted under the guidance and approval of Institutional Animal Care and Use Committee, NUS (041/12).
The experiments were performed as described in Sridharan et al., [Biochem J 469 (2): 255-66 (2015)]. In brief, animals were anesthetized with sodium pentobarbital (60-70 mg/kg) and catheters were inserted in femoral artery, vein and urinary bladder. The body temperature of the animals was maintained using a thermostatic heat pad at 37° C. Continuous infusions (2 ml/h) of 0.2% BSA saline (with or without peptide) was administered through the femoral vein while a pressure transducer attached to the femoral artery recorded on-line changes in mean arterial pressure (MAP), heart rate (HR) and pulse pressure (PP). Urine was collected and the volume was measured after every 10 min. Experiments encompassed control (2×10 min), experimental (1×10 min) and recovery (4×10 min) periods. All animals were euthanized at the end of the experiment in carbon-di-oxide chambers.

[2] = biological target: T1, rat NPR-A (Rattus norvegicus, UniProt P18910); experiment: Whole cell cGMP assay, 30 min end-point dose-response in CHO-K1 cells transiently expressing NPR-A; assay type: cell-based; conditions: for NPR-A activation potency, Ratio compared wild type NPs: negative = more potent than wild type
T1 construct: expressed in transfected cells; host or cells: CHO-K1
T1 sequence (P18910 29-1057): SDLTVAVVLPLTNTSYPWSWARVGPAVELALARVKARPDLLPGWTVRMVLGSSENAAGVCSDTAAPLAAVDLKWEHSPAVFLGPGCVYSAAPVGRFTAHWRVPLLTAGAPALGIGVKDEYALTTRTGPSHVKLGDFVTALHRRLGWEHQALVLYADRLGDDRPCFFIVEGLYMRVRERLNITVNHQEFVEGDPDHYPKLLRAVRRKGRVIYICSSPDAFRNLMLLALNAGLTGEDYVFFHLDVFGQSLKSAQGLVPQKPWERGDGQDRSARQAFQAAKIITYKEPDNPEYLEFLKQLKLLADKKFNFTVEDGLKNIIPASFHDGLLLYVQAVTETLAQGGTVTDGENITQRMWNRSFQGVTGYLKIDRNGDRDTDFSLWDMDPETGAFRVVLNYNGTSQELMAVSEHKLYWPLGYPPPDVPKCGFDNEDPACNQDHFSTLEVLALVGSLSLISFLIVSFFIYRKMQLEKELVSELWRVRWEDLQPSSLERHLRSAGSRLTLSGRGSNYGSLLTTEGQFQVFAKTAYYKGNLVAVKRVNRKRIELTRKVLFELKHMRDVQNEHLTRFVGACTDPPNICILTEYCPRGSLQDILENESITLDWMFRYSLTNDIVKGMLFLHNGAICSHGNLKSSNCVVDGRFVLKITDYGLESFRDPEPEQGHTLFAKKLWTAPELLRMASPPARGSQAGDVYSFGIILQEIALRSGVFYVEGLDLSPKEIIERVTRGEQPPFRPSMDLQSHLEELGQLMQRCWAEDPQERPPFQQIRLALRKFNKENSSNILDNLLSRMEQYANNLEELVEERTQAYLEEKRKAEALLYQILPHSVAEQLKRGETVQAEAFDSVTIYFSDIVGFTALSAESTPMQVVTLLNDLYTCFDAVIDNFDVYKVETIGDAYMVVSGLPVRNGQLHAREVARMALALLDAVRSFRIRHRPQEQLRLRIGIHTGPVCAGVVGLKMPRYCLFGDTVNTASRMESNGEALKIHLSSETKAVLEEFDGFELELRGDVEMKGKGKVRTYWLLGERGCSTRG
Protocol: (§1) The experiments were performed as described in Sridharan et al., [Biochem J 469 (2): 255-66 (2015)]. Dulbecco's modified Eagle's medium supplemented with 10% fetal bovine serum, 100 U/ml penicillin and 100 μg/ml streptomycin and 2 mM glutamine was used to grow CHO-K1 cells in a humidified incubator at 37° C. with 5% CO2. The cells were maintained by sub-culturing using 0.5% trypsin every three days. Cells (1×10^5) were seeded per well in 24-well plate and grown for 16 h. Cells in each well were transfected with 0.8 μg of plasmid encoding rat NPR-A using 2 μl of Lipofectamine™ 2000 transfection reagent. Cells were treated with the peptides 24 h after transfection.
NPR-A transfected CHO-K1 cells were treated with varying concentrations of peptides (10 nM to 10 μM dissolved in basal media containing 0.5 mM IBMX) for 30 min. The end-point accumulation of cGMP was measured after cell-lysis with 200 μl of 0.1 N HCl using Enzo life sciences cGMP ELISA kit (manufacturer's protocol).

[3] = biological target: T1, rat NPR-A; experiment: Time-chase study of cGMP accumulation (NPR-A activation kinetics) at EC50 concentration of peptide; assay type: cell-based
Protocol: as §1
Time-chase study was performed by treating the cells with EC50 concentration of the peptides. The reactions were terminated at the indicated time-points (0, 2, 5, 10, 20 and 30 min) by treating the cells with 0.1 N HCl. The cGMP concentration in the cell lysate was measured using cGMP ELISA kit (Enzo life sciences).

[4] = 2.0 nmol/kg/min infusion, listed as DRDAND
[5] = equimolar infusion (2 nmol/kg/min)

| SMILES | Heart rate Peak time ([1]; 0.2 nmol/kg/min infusion) [min] | Mean arterial pressure Peak response ([1]; 0.2 nmol/kg/min infusion) | Mean arterial pressure Peak time ([1]; 0.2 nmol/kg/min infusion) [min] | Pulse pressure Peak time ([1]; 0.2 nmol/kg/min infusion) [min] | Urine flow rate Peak response ([1]; 0.2 nmol/kg/min infusion) [µL/min] | HR Rate of change per unit change in MAP ([1]; 2 nmol/kg/min infusion) | PP Rate of change per unit change in MAP ([1]; 2 nmol/kg/min infusion) | Heart rate Peak response ([1]; 2.0 nmol/kg/min infusion) | Heart rate Peak time ([1]; 2.0 nmol/kg/min infusion) [min] | Mean arterial pressure Peak response ([1]; 2.0 nmol/kg/min infusion) [mmHg] | Mean arterial pressure Peak time ([1]; 2.0 nmol/kg/min infusion) [min] | Pulse pressure Peak time ([1]; 2.0 nmol/kg/min infusion) [min] | Urine flow rate Peak response ([1]; 2.0 nmol/kg/min infusion) [µL/min] | NPR-A activation potency, Ratio compared ANP [2] | NPR-A activation potency, Ratio compared wild type NPs [2] | Rate of generation of cGMP, Ratio compared ANP [3] | Rate of generation of cGMP, Ratio compared wild type NPs [3] | Rate of generation of cGMP ([3]; EC50 concentration of peptide) [pmol cGMP/pmol peptide] | time of peak / maximum accumulation of cGMP ([3]; EC50 concentration of peptide) [min] | also measured |
| --- | --- | --- | --- | --- | --- | --- | --- | --- | --- | --- | --- | --- | --- | --- | --- | --- | --- | --- | --- | --- |
| CC[C@H](C)[C@@H]1NC(=O)[C@H](CCCNC(=N)N)NC(=O)[C@H](CC(=O)O)NC(=O)[C@H](CCSC)NC(=O)[C@H](CCCNC(=N)N)NC(=O)[C@H](CCCNC(=N)N)NC(=O)[C@H](CC(=O)O)NC(=O)[C@H](Cc2ccccc2)NC(=O)[C@@H](NC(=O)[C@H](CO)NC(=O)[C@H](CO)NC(=O)[C@H](CCCNC(=N)N)NC(=O)[C@H](CCCNC(=N)N)NC(=O)[C@H](CC(C)C)NC(=O)[C@@H](N)CO)CSSC[C@@H](C(=O)N[C@@H](CC(N)=O)C(=O)N[C@@H](CO)C(=O)N[C@@H](Cc2ccccc2)C(=O)N[C@@H](CCCNC(=N)N)C(=O)N[C@@H](Cc2ccc(O)cc2)C(=O)O)NC(=O)CNC(=O)[C@H](CC(C)C)NC(=O)[C@H](CC(=O)O)NC(=O)[C@H](CO)NC(=O)[C@H](CCC(N)=O)NC(=O)[C@H](C)NC(=O)CNC1=O [^DRDANP] (H-SLRRSSCFDRRMDRIGAQSDLGCNSFRY-OH; disulfide 7-23; N-terminus assumed) | 30 | −12.9±1.5 mmHg | 30 | 20 | <2 | 4.5 | 0.5 | −66.6±14.6 BPM | 30 | −18.3±2.3 | 30 | 20 | 18.7 ± 0.7 | 2.6 | 2.6 | 21.0 | 21.0 | 0.38 | 10 | Heart rate Peak response ([1]; 0.2 nmol/kg/min infusion): −37.5±9.5 BPM; diuresis ([1]; 0.2 nmol/kg/min infusion): failed to induce diuresis; Pulse pressure Peak response ([1]; 2.0 nmol/kg/min infusion): −7.9±1.8 mmHg; Urine flow rate Peak Time ([1]; 2.0 nmol/kg/min infusion): 20 min; Heart rate Peak response [1, 4]: −66.6 ± 14.5 BPM; Mean arterial pressure Peak response [1, 4]: −18.4 ± 2.4 mmHg; Pulse pressure Peak response [1, 4]: −8.0 ± 1.8 mmHg; Urine flow rate Peak response [1, 4]: 18.8 ± 0.7 µL/min; diuresis compared to K-Ring^NSFRY [1, 5]: 2 fold; influence on HR compared to K-Ring^NSFRY [1, 5]: 2 fold; fold drop in activity compared to ANP ([2]; cGMP response): 3 fold; times slower activation kinetics compared to the wild type (ANP) [3]: 2.6 times |
| CC[C@H](C)[C@@H]1NC(=O)[C@H](CCCNC(=N)N)NC(=O)[C@H](CC(=O)O)NC(=O)[C@H](CCSC)NC(=O)[C@H](CCCNC(=N)N)NC(=O)CNC(=O)CNC(=O)[C@H](Cc2ccccc2)NC(=O)[C@@H](NC(=O)[C@H](CO)NC(=O)[C@H](CO)NC(=O)[C@H](CCCNC(=N)N)NC(=O)[C@H](CCCNC(=N)N)NC(=O)[C@H](CC(C)C)NC(=O)[C@@H](N)CO)CSSC[C@@H](C(=O)N[C@@H](CC(N)=O)C(=O)N[C@@H](CO)C(=O)N[C@@H](Cc2ccccc2)C(=O)N[C@@H](CCCNC(=N)N)C(=O)N[C@@H](Cc2ccc(O)cc2)C(=O)O)NC(=O)CNC(=O)[C@H](CC(C)C)NC(=O)CNC(=O)[C@H](CO)NC(=O)[C@H](CCC(N)=O)NC(=O)[C@H](C)NC(=O)CNC1=O [ANP, reference compound] | 30 | −10.1±0.8 mmHg and −10.1 ± 1.9 mmHg | 30 | 40 | 8.8 ± 1.3 |  |  |  |  |  |  |  |  |  |  |  |  |  |  | Heart rate Peak response ([1]; 0.08 nmol/kg/min infusion): −7.8 ± 2.4 BPM; Pulse pressure Peak response ([1]; 0.08 nmol/kg/min infusion): −2.1 ± 1.5 mmHg; Urine flow rate Peak Time ([1]; 0.08 nmol/kg/min infusion): 20 min; Urine flow rate Peak response ([1]; 0.08 nmol/kg/min infusion): 5.4 ± 1.4 µL/min; Mean arterial pressure Peak response ([1]; 0.08 nmol/kg/min infusion, anesthetized rats): −1.6 ± 1.5 mmHg; HR Rate of change per unit change in MAP ([1]; 0.2 nmol/kg/min infusion): 5.6; PP Rate of change per unit change in MAP ([1]; 0.2 nmol/kg/min infusion): 0.5; Pulse pressure Peak response ([1]; 0.2 nmol/kg/min infusion): −7.7±3.9 mmHg and −7.7±1.8 mmHg; Urine flow rate Peak Time ([1]; 0.2 nmol/kg/min infusion): 20 min |
| CC[C@H](C)[C@@H]1NC(=O)[C@H](CC(=O)O)NC(=O)[C@H](CO)NC(=O)[C@H]([C@@H](C)O)NC(=O)[C@H](Cc2c[nH]cn2)NC(=O)[C@H](CO)NC(=O)[C@H]([C@@H](C)CC)NC(=O)[C@H](CCCNC(=N)N)NC(=O)[C@H](CC(=O)O)NC(=O)[C@H]([C@@H](C)CC)NC(=O)[C@H](CCCNC(=N)N)NC(=O)[C@H](CCCNC(=N)N)NC(=O)CNC(=O)[C@H](Cc2ccccc2)NC(=O)[C@@H](NC(=O)[C@H](CO)NC(=O)[C@@H](NC(=O)[C@H](CC(C)C)NC(=O)[C@H](CC(C)C)NC(=O)CN)[C@@H](C)CC)CSSC[C@@H](C(=O)N[C@@H](CCCNC(=N)N)C(=O)N[C@@H](Cc2c[nH]cn2)C(=O)O)NC(=O)CNC1=O [^GRDK-Ring] (H-GLLISCFGRRIDRISHTSDIGCRH-OH; disulfide 6-22; N-terminus and C-terminus assumed) |  |  |  |  |  | 2.82 | 0.7 | −44.8±20.2 BPM and −44.8 ± 20.1 BPM | 30 | −11.3 ± 4.3 | 30 | 20 | <2 | 2.9 | −4.8 | 70.5 | 5.0 | 0.113 | 10 | fold higher potency compared to K-Ring ([2]; cGMP response): 5 fold; rate of generation of cGMP compared to K-Ring ([3]; EC50 concentration of peptide): slightly increased rate of cGMP production |
